Assay results: patent US20190252037A1 (priority 2016, published 2019)

Legend:
[1] = target: bat FluA polymerase-vRNA promoter complex; format: binding
FluB polymerase = format: binding, human influenza B/Memphis/13/03
bat FluA polymerase = format: binding

## Pol II CTD peptide, four heptad repeats Tyr-Ser-Pro-Thr-SerP-Pro-Ser (28 amino acids), FAM-labelled at the N-terminal end for binding assays (Covalab) [28-mer SeP5 peptide]
[1]
  Kd: 0.9 µM
  higher affinity for Ser5 phosphorylated compared to non-phosphorylated CTD repeats: > 10 fold
FluB polymerase
  Kd: 2.9 µM
Bat FluA polymerase
  binding in the absence of the vRNA promotor: independent of vRNA promoter binding
